Like-named read-outs stand apart in the source and are kept apart here.
Key:
[1] = tested on: SC LOX IMVI Melanoma Xenografts; test: SC LOX IMVI Melanoma Xenografts model in nude mice; assay type: in vivo, mouse; conditions: 50 mg/kg intraperitoneal
Procedure: The in vivo anti-tumor efficacy of Compound 53 has been studied using SC LOX IMVI Melanoma Xenografts model in nude mice (FIG. 76). This was a subcutaneous early stage experiment (defined as a median tumor staging size less than 200 mg). Compound 53 or vehicle control was administered by Intraperitoneal injection for various days with different doses.

[2] = tested on: U251 human CNS tumor xenograft; test: U251 human CNS tumor xenograft model in nude mice; assay type: in vivo, mouse; conditions: 60 mg/kg intraperitoneal
Procedure: The in vivo anti-tumor efficacy of Compound 53 has been studied using U251 human CNS tumor xenograft model in nude mice (FIG. 16). This was a subcutaneous early stage experiment (defined as a median tumor staging size less than 200 mg). Compound 53 or vehicle control was administered by Intraperitoneal injection for various days with different doses. […] Compound 53 was well tolerated at this doses with maximum body weight lose 3.4%.

[3] = tested on: NCI 60 cancer cell line panel; test: NCI-60 DTP Human Tumor Cell Line Panel, SRB growth inhibition; assay type: cell-based; conditions: for GI50: Homo sapiens
Procedure: The human tumor cell lines of the cancer screening panel are grown in RPMI 1640 medium containing 5% fetal bovine serum and 2 mM L-glutamine. For a typical screening experiment, cells are inoculated into 96 well microtiter plates in 100 μL at plating densities ranging from 5,000 to 40,000 cells/well depending on the doubling time of individual cell lines. After cell inoculation, the microtiter plates are incubated at 37° C., 5% CO2, 95% air and 100% relative humidity for 24 h prior to addition of experimental drugs.
After 24 h, two plates of each cell line are fixed in situ with TCA, to represent a measurement of the cell population for each cell line at the time of drug addition (Tz). Experimental drugs are solubilized in dimethyl sulfoxide at 400-fold the desired final maximum test concentration and stored frozen prior to use. At the time of drug addition, an aliquot of frozen concentrate is thawed and diluted to twice the desired final maximum test concentration with complete medium containing 50 μg/ml gentamicin. Additional four, 10-fold or ½ log serial dilutions are made to provide a total of five drug concentrations plus control. Aliquots of 100 μl of these different drug dilutions are added to the appropriate microtiter wells already containing 100 μl of medium, resulting in the required final drug concentrations.
Following drug addition, the plates are incubated for an additional 48 h at 37° C., 5% CO2, 95% air, and 100% relative humidity. For adherent cells, the assay is terminated by the addition of cold TCA. Cells are fixed in situ by the gentle addition of 50 μl of cold 50% (w/v) TCA (final concentration, 10% TCA) and incubated for 60 minutes at 4° C. The supernatant is discarded, and the plates are washed five times with tap water and air dried. Sulforhodamine B (SRB) solution (100 μl) at 0.4% (w/v) in 1% acetic acid is added to each well, and plates are incubated for 10 minutes at room temperature. After staining, unbound dye is removed by washing five times with 1% acetic acid and the plates are air dried. Bound stain is subsequently solubilized with 10 mM trizma base, and the absorbance is read on an automated plate reader at a wavelength of 515 nm. For suspension cells, the methodology is the same except that the assay is terminated by fixing settled cells at the bottom of the wells by gently adding 50 μl of 80% TCA (final concentration, 16% TCA). Using the seven absorbance measurements [time zero, (Tz), control growth, (C), and test growth in the presence of drug at the five concentration levels (Ti)], the percentage growth is calculated at each of the drug concentrations levels. Percentage growth inhibition is calculated as: [(Ti−Tz)/(C−Tz)]×100 for concentrations for which Ti>/=Tz [(Ti−Tz)/Tz]×100 for concentrations for which Ti<Tz.
Three dose response parameters are calculated for each experimental agent.

[4] = Plasma concentration after oral dosing in MV4-11 tumor-bearing mice (LCMS); assay type: in vivo; conditions: SCID, mouse, 24 hour after single oral 50 mg/kg
Procedure: (§1) The mice carrying the established MV4-11 tumor xenografts (tumor volume around 150 mm^3) were given an oral dose of 50 mg/kg NTW-3456. At 0, 1, 2, 8, 16, 24 hours after dosing, three were euthanized. The blood samples were collected and plasma was prepared with centrifuge for LCMS assay. And the tumors were harvested, homogenized in lysis buffer, immunoprecipitated with anti-FLT3 antibody FIG. 33.
(§2) The curve (solid dot) is the plot of plasma concentration-time profiles of NTW-3456 after oral administration of 50 mg/kg.

[5] = tested on: AN3 human endometrial carcinoma xenograft; test: Endometrial carcinoma xenograft; assay type: in vivo, mouse
[6] = tested on: FLT3 phosphorylation (pFLT3) of MV4-11 tumors; test: FLT3 phosphorylation in MV4-11 tumor xenografts after oral dosing; assay type: in vivo; conditions: Mus musculus, 24 hour after single oral 50 mg/kg
Procedure: as §1, §2

[7] = tested on: Panc-1 pancreatic carcinoma; test: Panc-1 model of pancreatic carcinoma; assay type: in vivo, mouse; conditions: with or without Abraxane

## C/C=C/c1cc(Nc2cc(N3CCN(C)CC3)nc(Oc3ccc4[nH]c(C)cc4c3F)n2)n[nH]1 [Compound 53]
[1]; QDx4
  maximum body weight lose: 10.3%
[1]; QDx4, day 13
  treat/control (T/C): 21%
[2]; Q2Dx3
  maximum body weight lose: 3.4%
[2]; Q2Dx3, day 30
  treat/control (T/C): 40%
[3]; 60 cell, range over the NCI 60 cell lines (Table 6), read-out: growth inhibition (GI50)
  GI50: 10 to 1890 nM
[3]; 786-0, Renal Cancer, 786-0, read-out: GI50
  GI50: 97.2 nM
[3]; A498, Renal Cancer, A498, read-out: GI50
  GI50: < 10 nM
[3]; A549, Non-Small Cell Lung Cancer, A549/ATCC, read-out: GI50
  GI50: 388 nM
[3]; ACHN, Renal Cancer, ACHN, read-out: GI50
  GI50: 190 nM
[3]; BT-549, Breast Cancer, BT-549, read-out: GI50
  GI50: 268 nM
[3]; CAKI-1, Renal Cancer, CAKI-1, read-out: GI50
  GI50: 901 nM
[3]; CCRF-CEM, Leukemia, CCRF-CEM, read-out: GI50
  GI50: < 10 nM
[3]; COLO 205, Colon Cancer, COLO 205, read-out: GI50
  GI50: 85.9 nM
[3]; DU-145, Prostate Cancer, DU-145, read-out: GI50
  GI50: 288 nM
[3]; HCC 2998, Colon Cancer, HCC-2998, read-out: GI50
  GI50: 1420 nM
[3]; HCT-15, Colon Cancer, HCT-15, read-out: GI50
  GI50: 397 nM
[3]; HCT-116, Colon Cancer, HCT-116, read-out: GI50
  GI50: 40.1 nM
[3]; HL-60, Leukemia, HL-60(TB), read-out: GI50
  GI50: 1430 nM
[3]; HOP-62, Non-Small Cell Lung Cancer, HOP-62, read-out: GI50
  GI50: 91.4 nM
[3]; HOP-92, Non-Small Cell Lung Cancer, HOP-92, read-out: GI50
  GI50: 22.4 nM
[3]; HT-29, Colon Cancer, HT29, read-out: GI50
  GI50: 96.3 nM
[3]; Hs-578T, Breast Cancer, HS 578T, read-out: GI50
  GI50: 13 nM
[3]; IGROV-1, Ovarian Cancer, IGROV1, read-out: GI50
  GI50: 47.2 nM
[3]; K562, Leukemia, K-562, read-out: GI50
  GI50: < 10 nM
[3]; KM12, Colon Cancer, KM12, read-out: GI50
  GI50: < 10 nM
[3]; LOX IMVI, Melanoma, LOX IMVI, read-out: GI50
  GI50: 34.3 nM
[3]; MCF7, Breast Cancer, MCF7, read-out: GI50
  GI50: < 10 nM
[3]; MDA-MB-231, Breast Cancer, MDA-MB-231/ATCC, read-out: GI50
  GI50: 227 nM
[3]; MDA-MB-435, Melanoma, MDA-MB-435, read-out: GI50
  GI50: 354 nM
[3]; MDA-MB-468, Breast Cancer, MDA-MB-468, read-out: GI50
  GI50: 39.2 nM
[3]; MOLT-4, Leukemia, MOLT-4, read-out: GI50
  GI50: 48.1 nM
[3]; Malme-3M, Melanoma, MALME-3M, read-out: GI50
  GI50: 132 nM
[3]; Melanoma, M14, read-out: GI50
  GI50: 166 nM
[3]; NCI-H23, Non-Small Cell Lung Cancer, NCI-H23, read-out: GI50
  GI50: 153 nM
[3]; NCI-H226, Non-Small Cell Lung Cancer, NCI-H226, read-out: GI50
  GI50: < 10 nM
[3]; NCI-H322M, Non-Small Cell Lung Cancer, NCI-H322M, read-out: GI50
  GI50: 915 nM
[3]; NCI-H460, Non-Small Cell Lung Cancer, NCI-H460, read-out: GI50
  GI50: 86.9 nM
[3]; NCI-H522, Non-Small Cell Lung Cancer, NCI-H522, read-out: GI50
  GI50: 72.2 nM
[3]; NCI/ADR-RES, Ovarian Cancer, NCI/ADR-RES, read-out: GI50
  GI50: 1540 nM
[3]; OVCAR-3, Ovarian Cancer, OVCAR-3, read-out: GI50
  GI50: 1070 nM
[3]; OVCAR-4, Ovarian Cancer, OVCAR-4, read-out: GI50
  GI50: 1550 nM
[3]; OVCAR-5, Ovarian Cancer, OVCAR-5, read-out: GI50
  GI50: 171 nM
[3]; OVCAR-8, Ovarian Cancer, OVCAR-8, read-out: GI50
  GI50: 187 nM
[3]; Prostate Cancer, PC-3, read-out: GI50
  GI50: 1270 nM
[3]; RPMI-8226, Leukemia, RPMI-8226, read-out: GI50
  GI50: 1890 nM
[3]; RXF 393, Renal Cancer, RXF 393, read-out: GI50
  GI50: 18.4 nM
[3]; SF530, CNS Cancer, SF-530, read-out: GI50
  GI50: 65.8 nM
[3]; SF-268, CNS Cancer, SF-268, read-out: GI50
  GI50: 87.7 nM
[3]; SF-295, CNS Cancer, SF-295, read-out: GI50
  GI50: 91 nM
[3]; SK-MEL-2, Melanoma, SK-MEL-2, read-out: GI50
  GI50: 1420 nM
[3]; SK-MEL-5, Melanoma, SK-MEL-5, read-out: GI50
  GI50: 1270 nM
[3]; SK-MEL-28, Melanoma, SK-MEL-28, read-out: GI50
  GI50: 342 nM
[3]; SK-OV-3, Ovarian Cancer, SK-OV-3, read-out: GI50
  GI50: 421 nM
[3]; SN12C, Renal Cancer, SN12C, read-out: GI50
  GI50: 48.7 nM
[3]; SNB-19, CNS Cancer, SNB-19, read-out: GI50
  GI50: 205 nM
[3]; SNB-75, CNS Cancer, SNB-75, read-out: GI50
  GI50: 15.8 nM
[3]; SW-620, Colon Cancer, SW-620, read-out: GI50
  GI50: 44.1 nM
[3]; T47D, Breast Cancer, T-47D, read-out: GI50
  GI50: 1030 nM
[3]; U-251, CNS Cancer, U251, read-out: GI50
  GI50: 103 nM
[3]; UACC-62, Melanoma, UACC-62, read-out: GI50
  GI50: 502 nM
[3]; UACC-257, Melanoma, UACC-257, read-out: GI50
  GI50: 388 nM
[3]; UO-31, Renal Cancer, UO-31, read-out: GI50
  GI50: 81 nM

## C/C=C/c1cc(Nc2cc(N3CCN(C)CC3)nc(Oc3cc(F)c4[nH]c(C)cc4c3F)n2)n[nH]1 [NTW-3456]
[4]
  concentration at 24 h: 7 nM
[5]
  anti-tumor effect: significant anti-tumor activity
[3]; cell lines from the NCI 60 panel
  antiproliferative activity: Anti-proliferative activity
[6]
  inhibition at 50 mg/kg: > 60%
[7]
  anti-tumor activity: significant anti-tumor activity
